Results on nine compounds are retold here after patent publication US11730819B2, “Peptide derivatives having novel linkage structures” (priority 2016, dated 2023).

“And” between values parts separate entries of the source, which are not always exact repeats. Equal values may be shown once. Read-outs that look alike come from different tables or passages of the source.

One experiment addresses T1, MT1-MMP hemopexin domain (Homo sapiens, UniProt P50281).
T1 construct: residues Cys319-Gly511 from the human gene; His6 (N); made in house; host or cells: HEK293 cells (transient, pEXPR-IBA42 vector)
The experiment is described as follows: Fluorescence polarisation competition binding assay. An excerpt:
The MT1-MMP hemopexin-like repeats (also known as the MT1-MMP hemopexin domain), residues Cys319-Gly511 from the human gene, were transiently expressed in HEK293 cells as secreted N-terminally His6-tagged soluble protein, using the pEXPR-IBA42 (IBA) expression vector. Following expression, the protein was purified by Nickel-NTA affinity chromatography followed by gel filtration, and purity was checked by SDS-PAGE. Batch to batch variability was also monitored by fluorescence thermal shift experiments in the presence/absence of a hemopexin domain binding bicycle.
(§1) Binding affinity was measured using competition assays using Fluorescence Polarisation (anisotropy).
Fluoresceination may be performed on the N-terminal amino group of the peptide, which is separated from the bicycle core sequence by a sarcosine spacer (usually Sar5). This can be done during Fmoc solid phase synthesis or post-synthetically (after cyclisation with TBMB and purification) if the N-terminal amino group is unique to the peptide. Fluoresceination can also be performed on the C-terminus, usually on a Lysine introduced as the first C-terminal residue, which is then separated from the bicycle core sequence by a sarcosine spacer (usually Sar6). Thus, N-terminal tracers can have a molecular format described as Fluo-Gly-Sar5-A(BicycleCoreSequence), and (BicycleCoreSequence)-A-Sar6-K(Fluo) for a C-terminally fluoresceinated construct. Fluorescent tracers used in the Examples are A-(17-69)-A-Sar6-K(Fluo), A-(17-69-07)-A-Sar6-K(Fluo), and A-(17-69-12)-A-Sar6-K(Fluo).
(§2) Here, a pre-formed complex of PEX with the fluorescent PEX-binding tracer is titrated with free, non-fluoresceinated bicyclic peptide. Since all 17-69-based peptides are expected to bind at the same site, the titrant will displace the fluorescent tracer from PEX. Dissociation of the complex can be measured quantitatively, and the Kd of the competitor (titrant) to the target protein determined. The advantage of the competition method is that the affinities of non-fluoresceinated bicyclic peptides can be determined accurately and rapidly.
(§3) Subsequently, the non-fluorescent competitor bicyclic peptide (usually just the bicycle core sequence) is titrated, such that it displaces the fluorescent tracer from the target protein. The displacement of the tracer is measured and associated with a drop in fluorescence polarisation. The drop in fluorescence polarisation is proportional to the fraction of target protein bound with the non-fluorescent titrant, and thus is a measure of the affinity of titrant to target protein.
The raw data is fit to the analytical solution of the cubic equation that describes the equilibria between fluorescent tracer, titrant, and binding protein. The fit requires the value of the affinity of fluorescent tracer to the target protein, which can be determined separately by direct binding FP experiments (see previous section).

For the next experiment, the target named is rat/mouse MT1-MMP (Mus musculus, UniProt P53690). The experiment is described as follows: Binding affinity to rat/mouse MT1-MMP, measured as previously described. The settings on record: Binding Affinity (Ki in nM) rat/mouse ki, bicycle peptide-drug conjugates, two values given. Here is the method:
as §1, §2, §3
The raw data is fit to the analytical solution of the cubic equation that describes the equilibria between fluorescent tracer, titrant, and binding protein. The fit requires the value of the affinity of fluorescent tracer to the target protein, which can be determined separately by direct binding FP experiments (see previous section). The curve fitting was performed using Sigmaplot 12.0 and used an adapted version of the equation described by Zhi-Xin Wang (FEBS Letters 360 (1995) 111-114).
The in vitro binding affinities of the bicycle peptide-drug conjugates prepared above were measured for MT1-MMP as previously described herein.

Where [1] appears, read: human MT1-MMP, bicycle peptides, read-out: Binding Affinity Ki (h).
[2] abbreviates: Binding Affinity (Ki in nM) Human ki, bicycle peptide-drug conjugates, human MT1-MMP, two values given.

One may read the Ki as a measure of affinity in units of concentration, obtained from inhibition or displacement. Turning to `CC(=O)NCCC(=O)N(C)CC(=O)N(C)CC(=O)N(C)CC(=O)N(C)CC(=O)N(C)CC(=O)N(C)CC(=O)N(C)CC(=O)N(C)CC(=O)N(C)CC(=O)N(C)CC(=O)N[C@@H](C)C(=O)N[C@H]1CNCc2cc3cc(c2)CSC[C@H](NC(=O)[C@@H](C)NC(=O)[C@H](Cc2cccc4ccccc24)NC(=O)[C@H](CCC(=O)O)NC(=O)[C@H](CC(N)=O)NC(=O)[C@@H](C)NC1=O)C(=O)N[C@@H](CCC(=O)O)C(=O)N[C@@H](CC(=O)O)C(=O)N[C@@H](Cc1ccccc1)C(=O)N[C@@H](Cc1ccc(O)cc1)C(=O)N[C@@H](CC(=O)O)C(=O)N[C@@H](C(C)(C)C)C(=O)N[C@H](C(N)=O)CNC3` [17-69-07-N455, Ac-(B-Ala)-Sar10-A(Dap)(D-Ala)NE(1Nal)(D-Ala)CEDFYD(tBuGly)(Dap)], the affinity on MT1-MMP hemopexin domain (Binding Affinity Ki (h), human MT1-MMP, bicycle peptides) corresponds to a Ki of 4 nM.

For the compound `CC(=O)N[C@H]1CN(C)Cc2cc3cc(c2)CN(C)C[C@@H](C(N)=O)NC(=O)[C@H](C(C)(C)C)NC(=O)[C@H](CC(=O)O)NC(=O)[C@H](Cc2ccc(O)cc2)NC(=O)[C@H](Cc2ccccc2)NC(=O)[C@H](CC(=O)O)NC(=O)[C@H](CCC(=O)O)NC(=O)[C@H](CSC3)NC(=O)[C@@H](C)NC(=O)[C@H](Cc2cccc3ccccc23)NC(=O)[C@H](CCC(=O)O)NC(=O)[C@H](CC(N)=O)NC(=O)[C@@H](C)NC1=O` [17-69-07-N461, Ac(Dap(Me))(D-Ala)NE(1Nal)(D-Ala)CEDFYD(tBuGly)(Dap(Me))], the Ki at MT1-MMP hemopexin domain (setting [1]) came out at 6 nM.

Regarding `CC(=O)N[C@@H](C)C(=O)N[C@H]1CN(C)Cc2cc3cc(c2)CN(C)C[C@H](NC(=O)[C@@H](C)NC(=O)[C@H](Cc2cccc4ccccc24)NC(=O)[C@H](CCC(=O)O)NC(=O)[C@H](CC(N)=O)NC(=O)[C@@H](C)NC1=O)C(=O)N[C@@H](CCC(=O)O)C(=O)N[C@@H](CC(=O)O)C(=O)N[C@@H](Cc1ccccc1)C(=O)N[C@@H](Cc1ccc(O)cc1)C(=O)N[C@@H](CC(=O)O)C(=O)N[C@@H](C(C)(C)C)C(=O)N[C@H](C(N)=O)CSC3` [17-69-07-N470, Ac-A(Dap(Me))(D-Ala)NE(1Nal)(D-Ala)(Dap(Me))EDFYD(tBuGly)C], the affinity at MT1-MMP hemopexin domain, expressed as Ki, was 8.3 nM.

For `C#CCCC(=O)N[C@H](CC(=O)O)C(=O)N[C@H](CC(=O)O)C(=O)N[C@H](CC(=O)O)C(=O)N(C)CC(=O)N(C)CC(=O)N[C@@H](C)C(=O)N[C@H]1CN(C)Cc2cc3cc(c2)CN(C)C[C@@H](C(N)=O)NC(=O)[C@H](C(C)(C)C)NC(=O)[C@H](CC(=O)O)NC(=O)[C@H](Cc2ccc(O)cc2)NC(=O)[C@H](Cc2ccccc2)NC(=O)[C@H](CC(=O)O)NC(=O)[C@H](CCC(=O)O)NC(=O)[C@H](CSC3)NC(=O)[C@@H](C)NC(=O)[C@H](Cc2cccc3ccccc23)NC(=O)[C@H](CCC(=O)O)NC(=O)[C@H](CC(N)=O)NC(=O)[C@@H](C)NC1=O` [17-69-07-N471, (PYA)-(D-Asp)3-Sar2-A(Dap(Me))(D-Ala)NE(1Nal)(D-Ala)CEDFYD(tBuGly)(Dap(Me))], the inhibition constant (Ki) on MT1-MMP hemopexin domain (setting [1]) came to 4.6 nM.

`C#CCCC(=O)NCCC(=O)N(C)CC(=O)N(C)CC(=O)N(C)CC(=O)N(C)CC(=O)N(C)CC(=O)N[C@@H](C)C(=O)N[C@H]1CN(C)Cc2cc3cc(c2)CN(C)C[C@@H](C(N)=O)NC(=O)[C@H](C(C)(C)C)NC(=O)[C@H](CC(=O)O)NC(=O)[C@H](Cc2ccc(O)cc2)NC(=O)[C@H](Cc2ccccc2)NC(=O)[C@H](CC(=O)O)NC(=O)[C@H](CCC(=O)O)NC(=O)[C@H](CSC3)NC(=O)[C@@H](C)NC(=O)[C@H](Cc2cccc3ccccc23)NC(=O)[C@H](CCC(=O)O)NC(=O)[C@H](CC(N)=O)NC(=O)[C@@H](C)NC1=O` [17-69-07-N472, (PYA)-(B-Ala)-Sar5-A(Dap(Me))(D-Ala)NE(1Nal)(D-Ala)CEDFYD(tBuGly)(Dap(Me))]: the inhibition constant Ki on MT1-MMP hemopexin domain (setting [1]) stood at 3.4 nM.

As to `C#CCCC(=O)N[C@H](CC(=O)O)C(=O)N[C@H](CC(=O)O)C(=O)N[C@H](CC(=O)O)C(=O)N(C)CC(=O)N(C)CC(=O)N[C@@H](C)C(=O)N[C@H]1CN(C)Cc2cc3cc(c2)CN(C)C[C@H](NC(=O)[C@@H](C)NC(=O)[C@H](Cc2cccc4ccccc24)NC(=O)[C@H](CCC(=O)O)NC(=O)[C@H](CC(N)=O)NC(=O)[C@@H](C)NC1=O)C(=O)N[C@@H](CCC(=O)O)C(=O)N[C@@H](CC(=O)O)C(=O)N[C@@H](Cc1ccccc1)C(=O)N[C@@H](Cc1ccc(O)cc1)C(=O)N[C@@H](CC(=O)O)C(=O)N[C@@H](C(C)(C)C)C(=O)N[C@H](C(N)=O)CSC3` [17-69-07-N473, (PYA)-(D-Asp)3-Sar2-A(Dap(Me))(D-Ala)NE(1Nal)(D-Ala)(Dap(Me))EDFYD(tBuGly)C], the affinity at MT1-MMP hemopexin domain, expressed as Ki, was 7.3 nM.

As usually defined, the Kd is the free concentration of one partner at which half of the binding sites on the other are occupied at equilibrium, for simple one-to-one binding. Lower therefore signals a tighter complex. On MT1-MMP hemopexin domain, `CC(=O)N[C@@H](C)C(=O)N[C@H]1CN(C)Cc2cc3cc(c2)CN(C)C[C@H](NC(=O)[C@@H](C)NC(=O)[C@H](Cc2cccc4ccccc24)NC(=O)[C@H](CCC(=O)O)NC(=O)[C@H](CC(N)=O)NC(=O)[C@@H](C)NC1=O)C(=O)N[C@@H](CCC(=O)O)C(=O)N[C@@H](CC(=O)O)C(=O)N[C@@H](Cc1ccccc1)C(=O)N[C@@H](Cc1ccc(O)cc1)C(=O)N[C@@H](CC(=O)O)C(=O)N[C@@H](C(C)(C)C)C(=O)N[C@H](C(N)=O)CN(C)C3` [17-69-07-N474, Ac-A(Dap(Me))(D-Ala)NE(1NaI)(D-Ala)(Dap(Me))EDFYD(tBuGly)(Dap(Me))] had a Kd of 8 nM and a Ki of 7.5 nM.

For `CC[C@H](C)[C@@H]([C@@H](CC(=O)N1CCC[C@H]1[C@H](OC)[C@@H](C)C(=O)N[C@H](C)[C@@H](O)c1ccccc1)OC)N(C)C(=O)[C@@H](NC(=O)[C@H](C(C)C)N(C)C(=O)OCc1ccc(NC(=O)[C@H](CCCNC(N)=O)NC(=O)[C@@H](NC(=O)Cn2cc(CCC(=O)N[C@@H](C)C(=O)N[C@H]3CN(C)Cc4cc5cc(c4)CN(C)C[C@@H](C(N)=O)NC(=O)[C@H](C(C)(C)C)NC(=O)[C@H](CC(=O)O)NC(=O)[C@H](Cc4ccc(O)cc4)NC(=O)[C@H](Cc4ccccc4)NC(=O)[C@H](CC(=O)O)NC(=O)[C@H](CCC(=O)O)NC(=O)[C@H](CSC5)NC(=O)[C@@H](C)NC(=O)[C@H](Cc4cccc5ccccc45)NC(=O)[C@H](CCC(=O)O)NC(=O)[C@H](CC(N)=O)NC(=O)[C@@H](C)NC3=O)nn2)C(C)C)cc1)C(C)C` [BT17BDC-62], the inhibition constant Ki on MT1-MMP hemopexin domain (setting [2]) is 3.9 nM and 3.3 nM; on rat/mouse MT1-MMP it was 2.1 nM and 1.9 nM.

On to `CC[C@H](C)[C@@H]([C@@H](CC(=O)N1CCC[C@H]1[C@H](OC)[C@@H](C)C(=O)N[C@H](C)[C@@H](O)c1ccccc1)OC)N(C)C(=O)[C@@H](NC(=O)[C@H](C(C)C)N(C)C(=O)OCc1ccc(NC(=O)[C@H](CCCNC(N)=O)NC(=O)[C@@H](NC(=O)CCCC(=O)NCCC(=O)N(C)CC(=O)N(C)CC(=O)N(C)CC(=O)N(C)CC(=O)N(C)CC(=O)N(C)CC(=O)N(C)CC(=O)N(C)CC(=O)N(C)CC(=O)N(C)CC(=O)N[C@@H](C)C(=O)N[C@H]2CN(C)Cc3cc4cc(c3)CN(C)C[C@@H](C(N)=O)NC(=O)[C@H](C(C)(C)C)NC(=O)[C@H](CC(=O)O)NC(=O)[C@H](Cc3ccc(O)cc3)NC(=O)[C@H](Cc3ccccc3)NC(=O)[C@H](CC(=O)O)NC(=O)[C@H](CCC(=O)O)NC(=O)[C@H](CSC4)NC(=O)[C@@H](C)NC(=O)[C@H](Cc3cccc4ccccc34)NC(=O)[C@H](CCC(=O)O)NC(=O)[C@H](CC(N)=O)NC(=O)[C@@H](C)NC2=O)C(C)C)cc1)C(C)C` [BT17BDC-68], for which the Ki is 2.9 nM and 3.3 nM on MT1-MMP hemopexin domain (setting [2]); 1.8 nM and 1.6 nM at rat/mouse MT1-MMP.
